# Test results as given in patent US9776972B2, “Pyrazole derivatives as arginine methyltransferase inhibitors and uses thereof” (priority 2013, dated 2017).
# pIC50: −log10 of the molar value.
# Molecular target: human PRMT3 (Homo sapiens, UniProt O60678)
# Experiment: PRMT3 Biochemical Assay (3H-SAM Flashplate, peptide substrate)
# Details: single experiment or average of multiple experiments
# Text: S-adenosylmethionine (SAM), S-adenosylhomocysteine (SAH), bicine, Tween20, dimethylsulfoxide (DMSO), bovine skin gelatin (BSG), isopropyl-β-D-thiogalactopyranoside (IPTG), and Tris(2-carboxyethyl)phosphine hydrochloride solution (TCEP) were purchased from Sigma-Aldrich at the highest level of purity possible. ^3H-SAM was purchase from American Radiolabeled Chemicals with a specific activity of 80 Ci/mmol. 384-well streptavidin Flashplates were purchased from PerkinElmer.
# Peptide containing the classic RMT substrate motif was synthesized with an N-terminal linker-affinity tag motif and a C-terminal amide cap by 21st Century Biochemicals. The peptide was purified by high-performance liquid chromatography (HPLC) to greater than 95% purity and confirmed by liquid chromatography mass spectrometry (LC-MS). The sequence was Biot-Ahx-[…]-amide (SEQ ID NO.:11).
# Full-length human PRMT3 (NM_005788.3) isoform 1 transcript clone was amplified from an HEK 293 cDNA library and subcloned into pGEX-KG (GE Life Sciences). The resulting construct encodes an N-terminal GST tag and a thrombin cleavage sequence ([…] […] […] […]) (SEQ ID NO.: 12) fused directly to Cys 2 of PRMT3.
# E. coli (BL21(DE3) Gold, Stratagene) made competent by the CaCl2 method were transformed with the PRMT3 construct and ampicillin selection. Protein over-expression was accomplished by growing the PRMT3 expressing E. coli clone and inducing expression with 0.3 mM IPTG at 16° C. The culture was grown for 12 hours, harvested by centrifugation, and stored at −80° C. for purification.
# GST-tagged PRMT3 was eluted with 50 mM Tris, 2 mM glutathione, pH 7.1 and 50 mM Tris, 20 mM glutathione, pH 7.1. Pooled fractions were dialysed in 20 mM Tris, 50 mM NaCl, 5% glycerol, 1 mM EDTA, 1 mM DTT, pH7.5 (Buffer B) and applied to a Q Sepharose Fast Flow column. GST-tagged PRMT3 was eluted by 500 mM NaCl in buffer B. Pooled fractions were dialyzed in 25 mM phosphate buffer, 100 mM NaCl, 5% glycerol, 2 mM DTT, pH 6.8 (Buffer C) and loaded on to a ceramic hydroxyapatite column. GST-tagged PRMT3 eluted with 25-400 mM phosphate in buffer C. Protein was concentrated and buffer was exchanged to 20 mM Tris, 150 mM NaCl, 5% glycerol, 5 mM β-mercaptoethanol, pH7.8 by ultrafiltration. The purity of recovered protein was 70%.
# General Procedure for PRMT3 Enzyme Assays on Peptide Substrates.
# The assays were all performed in a buffer consisting of 20 mM Bicine (pH=7.6), 1 mM TCEP, 0.005% BSG, and 0.002% Tween 20, prepared on the day of use. Compounds in 100% DMSO (1 ul) were spotted into a polypropylene 384-well V-bottom plates (Greiner) using a Platemate Plus outfitted with a 384-channel head (Thermo Scientific). DMSO (1 ul) was added to Columns 11, 12, 23, 24, rows A-H for the maximum signal control and 1 ul of SAH, a known product and inhibitor of PRMT3, was added to columns 11, 12, 23, 24, rows I-P for the minimum signal control. A cocktail (40 ul) containing the PRMT3 enzyme was added by Multidrop Combi (Thermo-Fisher). The compounds were allowed to incubate with PRMT3 for 30 min at room temperature, then a cocktail (10 ul) containing SAM and peptide was added to initiate the reaction (final volume=51 ul). The final concentrations of the components were as follows: PRMT3 was 0.5 nM, ^3H-SAM was 100 nM, non-radiolabeled SAM was 1.8 uM, peptide was 330 nM, SAH in the minimum signal control wells was 1 mM, and the DMSO concentration was 2%. The assays were stopped by the addition of potassium chloride (10 ul) to a final concentration of 100 mM. 50 ul of the reaction in the 384-well polypropylene plate was then transferred to a 384-well Flashplate and the biotinylated peptides were allowed to bind to the streptavidin surface for at least 1 hour before being washed once with 0.1% Tween20 in a Biotek ELx405 plate washer. […]
# Chain of human PRMT3 (O60678 with tags, fused parts or gaps): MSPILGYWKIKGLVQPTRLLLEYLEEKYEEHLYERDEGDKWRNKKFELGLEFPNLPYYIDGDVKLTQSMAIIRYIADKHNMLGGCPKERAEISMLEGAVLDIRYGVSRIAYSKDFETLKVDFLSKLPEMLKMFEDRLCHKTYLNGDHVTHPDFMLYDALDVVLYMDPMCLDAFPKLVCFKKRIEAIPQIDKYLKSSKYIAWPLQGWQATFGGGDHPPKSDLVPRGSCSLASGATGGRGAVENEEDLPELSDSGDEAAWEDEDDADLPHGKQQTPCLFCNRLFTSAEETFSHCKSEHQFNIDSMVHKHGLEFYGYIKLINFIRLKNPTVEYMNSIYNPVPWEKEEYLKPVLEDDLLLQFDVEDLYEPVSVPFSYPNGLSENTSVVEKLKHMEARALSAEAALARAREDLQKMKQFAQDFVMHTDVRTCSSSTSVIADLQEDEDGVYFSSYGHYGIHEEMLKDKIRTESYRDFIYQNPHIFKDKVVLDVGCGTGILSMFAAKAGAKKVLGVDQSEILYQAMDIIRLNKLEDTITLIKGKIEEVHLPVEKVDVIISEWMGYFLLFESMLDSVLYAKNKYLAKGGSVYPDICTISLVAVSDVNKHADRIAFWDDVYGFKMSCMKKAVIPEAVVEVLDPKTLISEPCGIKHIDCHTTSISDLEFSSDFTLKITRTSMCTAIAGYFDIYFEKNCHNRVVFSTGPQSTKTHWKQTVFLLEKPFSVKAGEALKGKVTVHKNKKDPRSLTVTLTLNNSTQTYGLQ
row,Compound,pIC50
1,CNCCN(C)Cc1cnn(C2CC2)c1-c1ccc(F)cc1 [Compound 14],4.63
2,CNCCN(C)Cc1cnn(C(C)C)c1-c1ccc(F)cc1 [Compound 16],< 4.30
3,CNCCN(C)Cc1cn[nH]c1-c1ccc(C#N)cc1 [Compound 17],5.55
4,CNCCN(C)Cc1cn[nH]c1-c1cc(F)cc(F)c1 [Compound 18],5.13
5,CN(CCN)Cc1n[nH]cc1-c1ccc(C2CCOCC2)cc1 [Compound 145],5.14
6,COc1ccc(-c2n[nH]cc2CN(C)CCN)c(Cl)c1 [Compound 146],5.05
7,CN(CCN)Cc1c[nH]nc1-c1cccc(N(C)C)c1 [Compound 149],5.04

# More lines, now with the values ahead:
row,pIC50,Compound
1,5.02,Cc1cc(F)ccc1-c1n[nH]cc1CN(C)CCN [Compound 152]
2,5.39,COc1ccc(-c2n[nH]cc2CN(C)CCN)cc1 [Compound 153]
3,5.07,COc1ccc(-c2n[nH]cc2CN(C)CCN)c(C)c1 [Compound 155]
4,5.45,Cc1ccc(-c2n[nH]cc2CN(C)CCN)cc1 [Compound 162]
5,5.46,CCOc1ccc(-c2n[nH]cc2CN(C)CCN)cc1 [Compound 166]
6,5.43,COCCOc1ccc(-c2n[nH]cc2CN(C)CCN)cc1 [Compound 167]
7,5.13,CC(C)Cc1ccc(-c2c[nH]nc2CN(C)CCN)cc1 [Compound 170]
8,5.47,CN(CCN)Cc1c[nH]nc1-c1ccc(OCCN2CCOCC2)cc1 [Compound 172]
